In patent US10422079B2, “Method for preserving recycled fiber by using biocides in paper manufacturing and method for manufacturing paper using recycled fibers” (ECOLAB USA INC., priority 2014, dated 2019):

Test system: pulp contaminated by the microbes (bacteria)
Assay: Starch degradation in microbe-inoculated recycled-fiber (AOCC) pulp treated with biocides, 5 days (Example 4)
Type: cell-based
Conditions: total chlorine 20 ppm, added once a day, combinations 10 ppm + 10 ppm
Method: 150 g standard American Old Corrugated Containers (sometimes called as AOCC) were weighted. The total starch content of the recycled American Old Corrugated Containers was detected according to the same starch measuring method of example 2, and the result was 9.1%.
In the pulping and papermaking process, the above waste paper was cut into pieces and immersed into 15 kilograms water overnight. The obtained sample was disintegrated by Valley Beater for 30 minutes and pulped for 20 minutes, and the pulp concentration thereof is about 1%.
The above obtained pulp was inoculated by the pulp which was contaminated by bacteria in the ratio of one to thousand, followed by cultivating for 3 hours at 37° C. The simulation pulp contaminated by the microbes was obtained to use for the following experiment. The pH, oxidation-reduction potential (ORP), concentration of adenosine triphosphate (ATP) and total number of aerobic bacteria colonies of the pulp which was contaminated initially by the microbes were detected. […]
The above substances were added into the pulps once a day and the concentrations of the total chlorine were maintained at 20 ppm by controlling the addition doses. The whole experiment was conducted for 5 days and the total starches contents were monitored.

OCl [sodium hypochlorite]
starch degradation rate: 5%
